Format in all cases: functional
For assay [1], the species on record is Rattus norvegicus. Description: Vasorelaxing activity expressed as maximum smooth muscle relaxation at 1*10e-4 M.
Assay [2] is filed under the species Rattus norvegicus. The assay is described as follows: Tested in vitro on K+ -depolarized rat aorta strips to evaluate its ability to relax the initial contraction induced by K.
The species named for assay [3] is Rattus norvegicus. The assay is described as follows: Vasorelaxing activity expressed as maximum smooth muscle relaxation at 1*10e-5 M.

One may read the IC50 as the concentration at which inhibition is half-maximal.

`Cc1ccccc1-c1cc(-c2ccccc2O)nc(O)c1C#N` displayed a Max relaxation in the assay filed under Rattus norvegicus [1] of 89.17%. Also, the IC50 in the assay filed under Rattus norvegicus [2] amounted to 1000 nM.
Consider `COc1ccc(OC)c(-c2cc(-c3ccccc3O)nc(O)c2C#N)c1`, for which, in the assay listed under Rattus norvegicus [2], the IC50 stood at 1.1 nM. The molecule further displayed a Max relaxation in the assay filed under Rattus norvegicus [3] of 95.51%.
As for `N#Cc1c(-c2ccccc2Cl)cc(-c2ccccc2O)nc1O`, in the assay filed under Rattus norvegicus [1], the Max relaxation was 79.78%. This molecule also returned an IC50 in the assay listed under Rattus norvegicus [2] of 30 nM.
The corresponding values for `COc1ccc(-c2cc(-c3ccccc3O)nc(O)c2C#N)c(OC)c1` are 40% and 380 nM.
The corresponding values for `N#Cc1c(-c2ccccc2)cc(-c2ccccc2O)[nH]c1=O` are 23.86% and 0.95 nM.
The corresponding values for `N#Cc1c(-c2ccccc2Br)cc(-c2ccccc2O)nc1O` are 35.29% and 17000 nM.
For the molecule `COc1ccccc1-c1cc(-c2ccccc2O)nc(O)c1C#N`, in the assay listed under Rattus norvegicus [1], the Max relaxation is recorded as 99.54%. In the assay filed under Rattus norvegicus [2], this molecule displayed an IC50 of 12 nM.
The corresponding values for `N#Cc1c(-c2cccc([N+](=O)[O-])c2)cc(-c2ccccc2O)nc1O` are 64% and 500 nM.
In turn, `COc1ccc([C@@H]2Sc3ccccc3N(CCN(C)C)C(=O)[C@@H]2OC(C)=O)cc1` [DILTIAZEM] gave a Max relaxation in the assay filed under Rattus norvegicus [1] of 97.86%. In the assay filed under Rattus norvegicus [2], this molecule returned an IC50 of 48 nM.

The values above are taken from ChEMBL document CHEMBL1133282, “Synthesis and preliminary biological evaluation of 4,6-disubstituted 3-cyanopyridin-2(1H)-ones, a new class of calcium entry blockers” (Bioorg Med Chem Lett, 2000).
